Results: patent US9382197B2, “Substituted hydroxamic acids and uses thereof” (Millennium Pharmaceuticals, Inc., priority 2010, dated 2016)
pIC50: −log10 of the molar value.

The compounds below were run against T1, purified human HDAC6 (Homo sapiens, UniProt Q9UBN7) (assay: HDAC6 Enzyme Assay). Settings: bin: greater than 500 nM and less than 1 μM (lower bound in nM, upper bound in μM).
T1 construct: purchased BPS Bioscience 5006
T1 sequence (Q9UBN7 1-1215): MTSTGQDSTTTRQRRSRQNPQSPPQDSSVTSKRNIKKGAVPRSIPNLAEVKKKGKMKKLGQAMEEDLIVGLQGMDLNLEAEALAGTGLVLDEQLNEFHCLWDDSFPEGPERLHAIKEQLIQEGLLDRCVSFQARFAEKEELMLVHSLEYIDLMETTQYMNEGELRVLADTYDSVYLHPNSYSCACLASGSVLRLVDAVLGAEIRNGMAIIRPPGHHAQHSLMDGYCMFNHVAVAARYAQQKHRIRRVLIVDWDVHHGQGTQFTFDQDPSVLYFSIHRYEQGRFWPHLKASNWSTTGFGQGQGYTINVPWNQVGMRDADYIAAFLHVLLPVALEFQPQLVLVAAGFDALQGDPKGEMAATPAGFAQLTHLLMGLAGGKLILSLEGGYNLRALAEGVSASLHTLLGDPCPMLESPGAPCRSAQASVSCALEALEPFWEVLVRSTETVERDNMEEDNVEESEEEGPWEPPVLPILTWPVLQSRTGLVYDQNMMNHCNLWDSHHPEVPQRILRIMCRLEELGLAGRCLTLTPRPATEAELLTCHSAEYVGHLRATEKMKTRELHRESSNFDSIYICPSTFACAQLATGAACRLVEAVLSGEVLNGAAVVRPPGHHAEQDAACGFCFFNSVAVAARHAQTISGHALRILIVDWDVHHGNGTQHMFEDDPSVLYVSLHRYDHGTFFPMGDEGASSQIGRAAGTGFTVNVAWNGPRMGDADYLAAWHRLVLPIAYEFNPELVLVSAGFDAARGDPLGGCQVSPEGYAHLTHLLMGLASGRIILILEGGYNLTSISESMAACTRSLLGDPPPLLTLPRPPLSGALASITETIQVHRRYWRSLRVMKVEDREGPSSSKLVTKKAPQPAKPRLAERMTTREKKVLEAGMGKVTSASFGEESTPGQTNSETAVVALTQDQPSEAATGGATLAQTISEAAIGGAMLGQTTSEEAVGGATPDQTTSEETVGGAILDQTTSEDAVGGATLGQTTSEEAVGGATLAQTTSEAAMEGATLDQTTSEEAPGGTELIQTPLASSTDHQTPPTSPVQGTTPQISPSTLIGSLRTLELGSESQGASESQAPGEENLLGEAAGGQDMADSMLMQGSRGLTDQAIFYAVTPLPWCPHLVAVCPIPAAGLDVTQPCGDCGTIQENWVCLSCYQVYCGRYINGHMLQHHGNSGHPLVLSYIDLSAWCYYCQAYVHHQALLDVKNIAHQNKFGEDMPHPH
Assay type: biochemical
In short: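 Purified human HDAC6 incubated 1 h at 30 °C with Ac-Arg-Gly-Lys(Ac)-AMC and compound; trichostatin A stop, trypsin release of AMC, fluorescence Ex 340/Em 460 nm. IC50 from concentration–response relative to DMSO.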

Compound | IC50
CC(NC(=O)C1(c2ccc(Cl)cc2)CC1)c1cccc(C(=O)NO)c1 (stereo not shown) [Compound I-183, 3-[1-({[1-(4-chlorophenyl)cyclopropyl]carbonyl}amino)ethyl]-N-hydroxybenzamide] | 500 to 1000 nM
CC(C)C(NC(=O)Cc1cccc(C(F)(F)F)c1)c1ccc(C(=O)NO)cc1 (stereo not shown) [Compound I-195, N-hydroxy-4-[2-methyl-1-({[3-(trifluoromethyl)phenyl]acetyl}amino)propyl]benzamide] | 500 to 1000 nM
CC(NC(=O)c1cccc(S(C)(=O)=O)c1)c1cccc(C(=O)NO)c1 (stereo not shown) [Compound I-199, N-(1-{3-[(hydroxyamino)carbonyl]phenyl}ethyl)-3-(methylsulfonyl)benzamide] | 500 to 1000 nM
CC(C)C(NC(=O)C(c1ccccc1)c1ccccc1)c1ccc(C(=O)NO)cc1 (stereo not shown) [Compound I-204, 4-{1-[(diphenylacetyl)amino]-2-methylpropyl}-N-hydroxybenzamide] | 500 to 1000 nM
CCc1cc(C(=O)NC(C)c2cccc(C(=O)NO)c2)n(C)n1 (stereo not shown) [Compound I-216, 3-ethyl-N-(1-{3-[(hydroxyamino)carbonyl]phenyl}ethyl)-1-methyl-1H-pyrazole-5-carboxamide] | 500 to 1000 nM

Same assay, conditions: bin: greater than 1 μM

Compound | pIC50
CC(C)[C@@H](NS(=O)(=O)c1ccc(C(F)(F)F)cc1)c1ccc(C(=O)NO)cc1 [Compound I-189, N-hydroxy-4-[(1R)-2-methyl-1-({[4-(trifluoromethyl)phenyl]sulfonyl}amino)propyl]benzamide] | < 6.00
Cc1noc(C)c1C(=O)NC(c1ccc(C(=O)NO)cc1)C(C)(C)C (stereo not shown) [Compound I-200, N-(1-{4-[(hydroxyamino)carbonyl]phenyl}-2,2-dimethylpropyl)-3,5-dimethylisoxazole-4-carboxamide] | < 6.00
Cn1nc2c(c1C(=O)NC(c1ccc(C(=O)NO)cc1)C(C)(C)C)CCCC2 (stereo not shown) [Compound I-211, N-(1-{4-[(hydroxyamino)carbonyl]phenyl}-2,2-dimethylpropyl)-2-methyl-4,5,6,7-tetrahydro-2H-indazole-3-carboxamide] | < 6.00
CC(NC(=O)CC12CC3CC(CC(C3)C1)C2)c1ccc(C(=O)NO)cc1 (stereo not shown) [Compound I-212] | < 6.00
Cc1nc(CC(=O)NC(C)c2ccc(C(=O)NO)cc2)c(C)s1 (stereo not shown) [Compound I-217, 4-(1-{[(2,5-dimethyl-1,3-thiazol-4-yl)acetyl]amino}ethyl)-N-hydroxybenzamide] | < 6.00
Cc1noc(C)c1C(=O)NC(C)c1cccc(C(=O)NO)c1 (stereo not shown) [Compound I-218, N-(1-{3-[(hydroxyamino)carbonyl]phenyl}ethyl)-3,5-dimethylisoxazole-4-carboxamide] | < 6.00

Same assay, conditions: purified human HDAC6, substrate Ac-Arg-Gly-Lys(Ac)-AMC, 1 hour at 30° C.; reported as bins

Compound | pIC50
Cc1c(C(=O)NC(c2ccc(C(=O)NO)cc2)C(C)(C)C)cnn1-c1ccccc1 (stereo not shown) [Compound I-182, N-(1-{4-[(hydroxyamino)carbonyl]phenyl}-2,2-dimethylpropyl)-5-methyl-1-phenyl-1H-pyrazole-4-carboxamide] | 6.30 to 7.00
C[C@@H](NC(=O)c1cc2ccccc2s1)c1ccc(C(=O)NO)cc1 [Compound I-184, N-((1R)-1-{4-[(hydroxyamino)carbonyl]phenyl}ethyl)-1-benzothiophene-2-carboxamide] | > 7.00
CC(NC(=O)c1ccc(-n2cccn2)cc1)c1ccc(C(=O)NO)cc1 (stereo not shown) [Compound I-185, N-(1-{4-[(hydroxyamino)carbonyl]phenyl}ethyl)-4-(1H-pyrazol-1-yl)benzamide] | > 7.00
CC(C)c1cc(C(=O)NC(C)c2ccc(C(=O)NO)cc2)n(C)n1 (stereo not shown) [Compound I-186, N-(1-{4-[(hydroxyamino)carbonyl]phenyl}ethyl)-3-isopropyl-1-methyl-1H-pyrazole-5-carboxamide] | > 7.00
Cc1c(C(=O)N[C@@H](c2ccc(C(=O)NO)cc2)C(C)C)oc2ccccc12 [Compound I-187, N-((1R)-1-{4-[(hydroxyamino)carbonyl]phenyl}-2-methylpropyl)-3-methyl-1-benzofuran-2-carboxamide] | > 7.00
CC(C)C(NC(=O)c1cnc2ccccc2n1)c1ccc(C(=O)NO)cc1 (stereo not shown) [Compound I-190, N-(1-{4-[(hydroxyamino)carbonyl]phenyl}-2-methylpropyl)quinoxaline-2-carboxamide] | > 7.00
CC(C)C(NC(=O)c1nc2ccccc2s1)c1ccc(C(=O)NO)cc1 (stereo not shown) [Compound I-191, N-(1-{4-[(hydroxyamino)carbonyl]phenyl}-2-methylpropyl)-1,3-benzothiazole-2-carboxamide] | > 7.00
CC(C)C(NC(=O)c1ccc(C(C)(C)C)cc1)c1ccc(C(=O)NO)cc1 (stereo not shown) [Compound I-192, 4-tert-butyl-N-(1-{4-[(hydroxyamino)carbonyl]phenyl}-2-methylpropyl)benzamide] | 6.30 to 7.00
COc1ccc(C(=O)N[C@H](C)c2cccc(C(=O)NO)c2)cc1 [Compound I-193, N-hydroxy-3-{(1R)-1-[(4-methoxybenzoyl)amino]ethyl}benzamide] | 6.30 to 7.00
CC(C)C(NC(=O)c1ccc2occc2c1)c1ccc(C(=O)NO)cc1 (stereo not shown) [Compound I-194, N-(1-{4-[(hydroxyamino)carbonyl]phenyl}-2-methylpropyl)-1-benzofuran-5-carboxamide] | > 7.00
CC(NC(=O)NC(C)c1ccc(C(=O)NO)cc1)c1ccccc1 (stereo not shown) [Compound I-196, N-hydroxy-4-[1-({[(1-phenylethyl)amino]carbonyl}amino)ethyl]benzamide] | 6.30 to 7.00
C[C@@H](NC(=O)c1cc2ccccc2o1)c1cccc(C(=O)NO)c1 [Compound I-201, N-((1R)-1-{3-[(hydroxyamino)carbonyl]phenyl}ethyl)-1-benzofuran-2-carboxamide] | 6.30 to 7.00
COc1ccc(C(=O)NC(C)c2cccc(C(=O)NO)c2)cc1 (stereo not shown) [Compound I-202, N-hydroxy-3-{1-[(4-methoxybenzoyl)amino]ethyl}benzamide] | 6.30 to 7.00
CC(C)C(NC(=O)c1cnccn1)c1ccc(C(=O)NO)cc1 (stereo not shown) [Compound I-203, N-(1-{4-[(hydroxyamino)carbonyl]phenyl}-2-methylpropyl)pyrazine-2-carboxamide] | 6.30 to 7.00
CC(C)C(NC(=O)Cc1csc2ccc(Cl)cc12)c1ccc(C(=O)NO)cc1 (stereo not shown) [Compound I-206, 4-(1-{[(5-chloro-1-benzothien-3-yl)acetyl]amino}-2-methylpropyl)-N-hydroxybenzamide] | 6.30 to 7.00
CC(NC(=O)c1cc2ccccc2o1)c1ccc(C(=O)NO)cc1 (stereo not shown) [Compound I-207, N-(1-{4-[(hydroxyamino)carbonyl]phenyl}ethyl)-1-benzofuran-2-carboxamide] | > 7.00
CC(NC(=O)C1CCCCC1)c1ccc(C(=O)NO)cc1 (stereo not shown) [Compound I-208, 4-{1-[(cyclohexylcarbonyl)amino]ethyl}-N-hydroxybenzamide] | > 7.00
C[C@@H](NC(=O)C12CC3CC(CC(C3)C1)C2)c1ccc(C(=O)NO)cc1 [Compound I-209, N-((1R)-1-{4-[(hydroxyamino)carbonyl]phenyl}ethyl)adamantane-1-carboxamide] | > 7.00
CC(NC(=O)NCCc1ccccc1)c1ccc(C(=O)NO)cc1 (stereo not shown) [Compound I-210, N-hydroxy-4-[1-({[(2-phenylethyl)amino]carbonyl}amino)ethyl]benzamide] | > 7.00
CC(NC(=O)C1CCCCCC1)c1ccc(C(=O)NO)cc1 (stereo not shown) [Compound I-213, N-(1-{4-[(hydroxyamino)carbonyl]phenyl}ethyl)cycloheptanecarboxamide] | > 7.00
CC(C)[C@@H](NC(=O)c1cc2ccccc2s1)c1ccc(C(=O)NO)cc1 [Compound I-214, N-((1R)-1-{4-[(hydroxyamino)carbonyl]phenyl}-2-methylpropyl)-1-benzothiophene-2-carboxamide] | > 7.00
CC(C)(C)C(NC(=O)c1cccs1)c1ccc(C(=O)NO)cc1 (stereo not shown) [Compound I-215, N-(1-{4-[(hydroxyamino)carbonyl]phenyl}-2,2-dimethylpropyl)thiophene-2-carboxamide] | 6.30 to 7.00
CC(NC(=O)c1cc2ccccc2n1C)c1cccc(C(=O)NO)c1 (stereo not shown) [Compound I-219, N-(1-{3-[(hydroxyamino)carbonyl]phenyl}ethyl)-1-methyl-1H-indole-2-carboxamide] | 6.30 to 7.00
